Where two headings read alike, the source gives them in different places.
What was measured:
[1] = system: Japanese patients with grade (G) 1/G2 NET; experiment: Safety: adverse events (NCI-CTCAE ver. 4.0); format: in vivo, human; conditions: for Adverse events (any): N=32
Method: (§1) For the safety evaluation, adverse events (AEs) were recorded after the first injection until the point of data cutoff (December 2015) in the extension study. AE severity was assessed according to the National Cancer Institute Common Terminology Criteria for Adverse Events (NCI-CTCAE) ver. 4.0. Gallbladder echography and blood evaluations, including serum anti-lanreotide antibody tests were performed every 12 weeks during the 48 -week period after the first injection, and every 24 weeks thereafter.
(§2) Full analysis set (FAS) and CLARINET-like FAS which was satisfied eligibility criteria of the CLARINET study were used for efficacy analysis. Safety analysis set which included patients who had received the study drug at least once was used for safety analysis. Per protocol set (PPS) was used for pharmacokinetic analysis.
Safety was evaluated using results which obtained by the data in the phase II and extension studies up to the time of data cutoff. The maximum exposure period from baseline to the time of data cutoff was 100.0 weeks (median, 87.3 weeks), and the mean exposure period (SD) was 83.1 weeks (15.2 weeks).
Adverse events were evaluated using the National Cancer Institute Common Terminology Criteria for Adverse Events (NCI-CTCAE), ver. 4.0.

[2] = system: serum CgA; experiment: Serum chromogranin A (CgA) concentration; format: in vivo, human; conditions: 15 of 17 patients with baseline CgA >100 ng/mL
Method: Serum CgA, serum anti-lanreotide antibody, and serum lanreotide testing methods are described in the Electronic Supplementary Material.
In the primary analysis, the CBR point estimate at 24 weeks after the first injection and an exact F distribution-based 95% confidence interval (CI) were calculated. The CBR was selected as the primary endpoint, because maintaining SD was deemed beneficial and clinically meaningful for NET patients. In the secondary analysis, Kaplan–Meier curves of PFS and OS were prepared, and median values and 95% CIs were calculated. The ORRs at 24, 48, and 60 weeks after the first injection were also calculated. Regarding percent changes from baseline in the sum of the diameters of target lesion, descriptive statistics were calculated for each evaluation time point, and waterfall plots of the best response and last evaluation time points were prepared. Regarding the serum CgA concentration and QOL evaluation, descriptive statistics of changes from baseline were calculated for each time point. For all endpoints, the starting point of evaluation was set as the baseline for the phase II study.
Serum chromogranin A concentrations were determined centrally every 12 weeks for the 48-weeks period following the start of administration, and every 24 weeks thereafter (SRL Medisearch Inc.,Tokyo,Japan, Kit Cisbio).

[3] = Serum anti-lanreotide antibody test (radioimmunoprecipitation assay); format: in vivo, human
Method: as §1
Serum anti-lanreotide antibody levels were determined every 4 weeks for the 24-weeks period following the start of administration, and every 12 weeks thereafter for the 48-weeks. Serum anti-lanreotide antibody levels were centrally determined using a validated radioimmunoprecipitation assay (RIPA; SGS Cephac, Saint-Benoît, France). Anti-lanreotide antibody-positivity was evaluated in two stages: screening test and confirmation test. Antibody titers were determined for samples found to be positive in the confirmation test.

[4] = CLARINET study; cited from earlier work
Description: No interracial differences were observed regarding drug concentrations in the blood. This inter-study difference in the number of treatment required to achieve steady state is attributed to the associated with the low num ...

[5] = Pharmacokinetics: serum lanreotide concentration (radioimmunoassay); format: in vivo, human
Method: as §2
Regarding pharmacokinetics evaluations, serum lanreotide concentrations were determined on the day of first administration (before and 2 and 4 h after administration of the study drug) and at 4, 8, 12, 16, and 20 (before and 2 and 4 h after administration of the study drug), 24, 36, and 48 weeks after the start of administration (or at the time of discontinuation). Serum lanreotide concentrations were centrally determined using a validated radioimmunoassay (RIA; Kymos Pharma Services S.L., Barcelona, Spain).

[6] = system: Japanese patients with grade (G) 1/G2 NET; experiment: Quality of life, EORTC QLQ-C30 (ver. 3.0); format: in vivo, human; conditions: EORTC QLQ-C30, individual terms
Description: The primary endpoint was the clinical benefit rate (CBR) at 24 weeks after the first injection, which served to indicate and confirm the anti-tumor effects of lanreotide. The CBR was defined as the percentage of patients in the analysis set who achieved a complete response or partial response (PR) as the best overall response, or those who maintained stable disease (SD) over 24 weeks after the first injection by central review. Secondary efficacy endpoints were progression-free survival (PFS), overall survival (OS), objective response rate (ORR), and the percent change from baseline in the sum of the diameters of target lesion from baseline. […] Regarding tumor lesion imaging ≥4 weeks before the baseline, the investigators evaluated computed tomography (CT) or magnetic resonance imaging (MRI) data based on the RECIST (ver. 1.1). To evaluate anti-tumor effects after baseline, CT or MRI data were evaluated centrally by an independent third party based on the RECIST (ver. 1.1). During the study period, images of each patient were determined using the same method (CT or MRI), according to the standardized procedure at each site. […]
In the primary analysis, the CBR point estimate at 24 weeks after the first injection and an exact F distribution-based 95% confidence interval (CI) were calculated. […] The ORRs at 24, 48, and 60 weeks after the first injection were also calculated. […]

## CC(C)[C@@H]1NC(=O)[C@H](CCCCN)NC(=O)[C@@H](Cc2c[nH]c3ccccc23)NC(=O)[C@H](Cc2ccc(O)cc2)NC(=O)[C@@H](NC(=O)[C@H](N)Cc2ccc3ccccc3c2)CSSC[C@@H](C(=O)N[C@H](C(N)=O)[C@@H](C)O)NC1=O [lanreotide]
[1]; 6 patients of 32
  Serious AEs: 18.8%
[1]; Grade 3
  Adverse events (any): 11 (34.4) Number of patients (%)
[1]; Grade 3 only, 6 patients of 32
  Grade 3 or higher ADRs: 18.8%
[1]; Grade 4
  Adverse events (any): 2 (6.3) Number of patients (%)
[1]; Grade 5
  Adverse events (any): 0 Number of patients (%)
[1]; safety analysis set n=32
  ADR faeces pale: 18.8%
  ADR flatulence: 12.5%
  ADR injection site induration: 28.1%
  Grade 4/5 ADRs and ADRs necessitating discontinuation of the study drug: did not occur
  serious ADR pyrexia: 3.1%
[1]; safety analysis set n=32, 27 patients
  patients with AEs related to study drug (ADRs): 84.4%
[1]; safety analysis set n=32, 31 patients
  patients with AEs: 96.9%
[2]
  patients with serum CgA decrease of ≥50% by last examination relative to baseline: 88.2%
[3]; 2 patients, RIPA
  patients positive for anti-lanreotide antibodies: 6.3%
[3]; Patient A, Baseline
  Anti-lanreotide antibody test: Negative
[3]; Patient A, Week 4
  Anti-lanreotide antibody test: Negative
[3]; Patient A, Week 8
  Anti-lanreotide antibody test: Negative
[3]; Patient A, Week 12
  Anti-lanreotide antibody test: Negative
[3]; Patient A, Week 16
  Anti-lanreotide antibody test: Positive
  Antibody titer: 1/1
[3]; Patient A, Week 20
  Anti-lanreotide antibody test: Negative
[3]; Patient A, Week 24
  Anti-lanreotide antibody test: Negative
[3]; Patient A, Week 36
  Anti-lanreotide antibody test: Positive
  Antibody titer: 1/2
[3]; Patient B, Baseline
  Anti-lanreotide antibody test: Negative
[3]; Patient B, Week 4
  Anti-lanreotide antibody test: Negative
[3]; Patient B, Week 8
  Anti-lanreotide antibody test: Positive
  Antibody titer: 1/4
[3]; Patient B, Week 12
  Anti-lanreotide antibody test: Positive
  Antibody titer: 1/32
[3]; Patient B, Week 16
  Anti-lanreotide antibody test: Positive
  Antibody titer: 1/32
[3]; Patient B, Week 20
  Anti-lanreotide antibody test: Positive
  Antibody titer: 1/64
[3]; Patient B, Week 24
  Anti-lanreotide antibody test: Positive
  Antibody titer: 1/64
[3]; Patient B, Week 36
  Anti-lanreotide antibody test: Positive
  Antibody titer: 1/256
[3]; Patient B, Week 48
  Anti-lanreotide antibody test: Positive
  Antibody titer: 1/512
[4]
  number of injections to steady state: 6 injections
[5]; 120 mg every 4 weeks
  number of doses to near-steady state: 3 doses
[5]; human, in vivo, injection at 20 weeks after the first injection, read-out: median time to reach the maximum serum concentration
  Tmax: 3.8 h
[5]; human, in vivo, serum, PPS 28 patients, read-out: time of Cmax after the first injection (median)
  Tmax: 3.9 h
[5]; human, in vivo, 120 mg every 4 weeks, PPS 28 patients, mean ± SD, read-out: Cmax at 20 weeks after the first injection
  Cmax: 24.2 ± 20.2 ng/mL
[5]; human, serum, sc, 120 mg, PPS 28 patients, read-out: serum concentration at 4 weeks after the first injection, before injection (trough, mean ± SD)
  level at 672 h: 3.1 ± 1.4 ng/mL
[5]; human, serum, sc, 120 mg every 4 weeks, PPS 28 patients, mean ± SD, read-out: trough concentration at 24 weeks after the first injection
  level at 4032 h: 6.1 ± 3.3 ng/mL
[5]; serum, 120 mg deep s.c., PPS 28 patients, RIA
  Cmax after the first injection (mean ± SD): 20.2 ± 18.2 ng/mL
[6]
  QOL transformed scores versus baseline: did not differ significantly

From paper PMC5502055, “Phase II study of lanreotide autogel in Japanese patients with unresectable or metastatic well-differentiated neuroendocrine tumors” (Investigational New Drugs, 2017)
